Assay results as given in the supplement of paper PMC10331698.
± gives the standard deviation of the averaged measurements.

Tests used:
Test in all cases: level (log10 ratio to DMSO vehicle control); higher = higher biomarker level / cell amount than vehicle control
Conditions in all cases: in DMSO
[1] = compound: Cn1cnc([N+](=O)[O-])c1Sc1ncnc2[nH]cnc12 [Azathioprine]
Method: (§1)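 BioMAP Diversity Plus panel of 12 human primary cell co-culture systems (3C, 4H, LPS, SAg, BT, BF4T, BE3C, CASM3C, HDF3CGF, KF3CT, MyoF, Mphg). Compounds were added 1 h before stimulation and left for 24 h (MyoF 48 h; BT 72 h for soluble read-outs or 6 d for IgG). Biomarkers were read by ELISA, cytotoxicity by SRB, PBMC viability and proliferation by Alamar Blue. Each well value was divided by the mean of 8 DMSO control wells on the same plate and log10 transformed; duplicate blinded samples were tested at 4 concentrations.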

[2] = compound: N=C(N)C(F)(F)C(F)(F)C(F)(F)C(F)(F)C(F)(F)C(F)(F)C(F)(F)F [Perfluorooctanamidine]
Method: as §1

[3] = compound: O=C(O)C(F)(F)C(F)(F)C(F)(F)C(F)(F)C(F)(F)C(F)(F)C(F)(F)C(F)(F)C(F)(F)C(F)(F)C(F)(F)C(F)(F)C(F)(F)F [Perfluorotetradecanoic acid]
Method: as §1

[4] = compound: O=C(O)C(F)(F)C(F)(F)C(F)(F)C(F)(F)C(F)(F)C(F)(F)C(F)(F)C(F)(F)C(F)(F)C(F)(F)C(F)(F)C(F)(F)F [Perfluorotridecanoic acid]
Method: as §1

[5] = compound: O=C(O)C(F)(F)OC(F)(F)C(F)(F)OC(F)(F)C(F)(F)C(F)(F)C(F)(F)F [Perfluoro-3,6-dioxadecanoic acid]
Method: as §1

[6] = compound: O=S(=O)(O)C(F)(F)C(F)(F)C(F)(F)C(F)(F)F [Perfluorobutanesulfonic acid]
Method: as §1

Test System	level (log10) ([1]; 1400 nM)	level (log10) ([1]; 4200 nM)	level (log10) ([1]; 13000 nM)	level (log10) ([1]; 38000 nM)	level (log10) ([2]; 6700 nM)	level (log10) ([2]; 20000 nM)	level (log10) ([2]; 60000 nM)	level (log10) ([3]; 6700 nM)	level (log10) ([3]; 20000 nM)	level (log10) ([4]; 1500 nM)	level (log10) ([4]; 4400 nM)	level (log10) ([4]; 13000 nM)	level (log10) ([4]; 40000 nM)	level (log10) ([5]; 6700 nM)	level (log10) ([5]; 20000 nM)	level (log10) ([5]; 60000 nM)	level (log10) ([6]; 6700 nM)	level (log10) ([6]; 20000 nM)	level (log10) ([6]; 60000 nM)
HDF3CGF:TIMP-2	-0.0175 ± 0.00071	-0.023 ± 0.048	0.0315 ± 0.056	0.049 ± 0.018	-0.008 ± 0.027	-0.012 ± 0.031	-0.018	0.091 ± 0.0085	0.036 ± 0.05	0.0455 ± 0.043	0.0415 ± 0.084	0.102 ± 0.019	0.0095 ± 0.013	-0.0245 ± 0.028	-0.035 ± 0.0085	-0.0625 ± 0.0078	0.0135 ± 0.037	0.017 ± 0.023	0.031 ± 0.014
HDF3CGF:Collagen I	-0.0185 ± 0.005	-0.059 ± 0.044	-0.0475 ± 0.028	-0.034 ± 0.064	-0.015 ± 0.0085	-0.025 ± 0.03	-0.021	-0.0105 ± 0.076	0.016 ± 0.078	0.0245 ± 0.1	-0.017 ± 0.0071	-0.0245 ± 0.044	0.0105 ± 0.013	-0.052 ± 0.011	-0.0485 ± 0.0064	-0.095 ± 0.13	0.0175 ± 0.037	-0.003 ± 0.025	0.0345 ± 0.043
HDF3CGF:CXCL11/I-TAC	-0.0495 ± 0.018	-0.042 ± 0.055	-0.078 ± 0.014	-0.21 ± 0.04	0.024 ± 0.025	0.0285 ± 0.029	-0.119	0.0165 ± 0.015	-0.0705 ± 0.08	-0.072 ± 0.014	-0.074 ± 0.055	-0.0805 ± 0.077	-0.18 ± 0.034	-0.0355 ± 0.023	-0.0895 ± 0.028	-0.168 ± 0.024	-0.0235 ± 0.00071	0.005 ± 0.0028	-0.005 ± 0.0014
HDF3CGF:EGFR	-0.006 ± 0.0014	-0.0565 ± 0.076	-0.05 ± 0.061	-0.011 ± 0.1	-0.017 ± 0.02	0.01 ± 0.011	-0.013	-0.0725 ± 0.036	0.029 ± 0.081	0.0025 ± 0.077	-0.052 ± 0.025	-0.0595 ± 0.03	-0.0175 ± 0.046	-0.0005 ± 0.0064	-0.0815 ± 0.026	-0.135 ± 0.016	0.0105 ± 0.005	-0.032 ± 0.048	-0.0205 ± 0.032
CASM3C:M-CSF	0.0065 ± 0.00071	-0.0255 ± 0.018	-0.0305 ± 0.0064	-0.007 ± 0.038	-0.0095 ± 0.021	-0.025 ± 0.028	0.034	0.006 ± 0.025	-0.0065 ± 0.043	0.0075 ± 0.054	0.0255 ± 0.005	0.0565 ± 0.039	0.095 ± 0.0085	-0.0055 ± 0.035	-0.024 ± 0.0057	0.0115 ± 0.073	-0.007 ± 0.031	-0.002	0.0025 ± 0.011
CASM3C:CCL2/MCP-1	0.0135 ± 0.044	-0.012 ± 0.014	-0.0195 ± 0.021	-0.001 ± 0.052	0.008 ± 0.024	0.011 ± 0.034	0.085	-0.0615 ± 0.036	-0.03 ± 0.021	-0.0135 ± 0.0021	-0.043 ± 0.033	-0.04 ± 0.033	0.0315 ± 0.033	-0.012 ± 0.0085	-0.0175 ± 0.013	0.043 ± 0.069	-0.0085 ± 0.0092	-0.0125 ± 0.035	-0.0045 ± 0.021
lMphg:CD69	0.027 ± 0.013	-0.0205 ± 0.029	-0.004 ± 0.0028	0.022 ± 0.011	-0.048 ± 0.0028	-0.052 ± 0.0085	0.029	-0.02 ± 0.038	-0.007 ± 0.089	-0.0045 ± 0.019	-0.0685 ± 0.018	-0.066 ± 0.04	-0.0555 ± 0.013	-0.0505 ± 0.021	-0.0425 ± 0.0021	-0.196 ± 0.063	0.0035 ± 0.005	-0.0195 ± 0.005	-0.0525 ± 0.043
CASM3C:SRB	0.0015 ± 0.0092	0.003 ± 0.0057	-0.013 ± 0.0014	-0.0365 ± 0.0078	-0.0015 ± 0.011	-0.0105 ± 0.00071	-0.018	-0.011 ± 0.0028	0.0025 ± 0.0092	0.0075 ± 0.016	0.005 ± 0.0042	-0.002 ± 0.0014	-0.0065 ± 0.00071	0.003 ± 0.0071	-0.0025 ± 0.0092	-0.0005 ± 0.0092	-0.0045 ± 0.0035	-0.0045 ± 0.0035	-0.008 ± 0.0028
